Here are results for 14 compounds from patent US20250179103A1, “6-OXODECAHYDROPYRROLO[1,2-A][1,5]DIAZOCINE AND 6-OXODECAHYDRO-4H-PYRROLO[2,1-D][1,5]THIAZOCINE DERIVATIVES AS STAT3 AND STAT6 MODULATORS FOR THE TREATMENT OF CANCER AND INFLAMMATORY CONDITIONS” (Recludix Pharma, Inc., priority 2022, published 2025).

Assay [1] concerns the target T1, Recombinant STAT6 protein (STAT6(W123-T658)) (Homo sapiens, UniProt P42226).
T1 construct: Recombinant STAT6 protein (STAT6(W123-T658))
T1 sequence (P42226 123-658): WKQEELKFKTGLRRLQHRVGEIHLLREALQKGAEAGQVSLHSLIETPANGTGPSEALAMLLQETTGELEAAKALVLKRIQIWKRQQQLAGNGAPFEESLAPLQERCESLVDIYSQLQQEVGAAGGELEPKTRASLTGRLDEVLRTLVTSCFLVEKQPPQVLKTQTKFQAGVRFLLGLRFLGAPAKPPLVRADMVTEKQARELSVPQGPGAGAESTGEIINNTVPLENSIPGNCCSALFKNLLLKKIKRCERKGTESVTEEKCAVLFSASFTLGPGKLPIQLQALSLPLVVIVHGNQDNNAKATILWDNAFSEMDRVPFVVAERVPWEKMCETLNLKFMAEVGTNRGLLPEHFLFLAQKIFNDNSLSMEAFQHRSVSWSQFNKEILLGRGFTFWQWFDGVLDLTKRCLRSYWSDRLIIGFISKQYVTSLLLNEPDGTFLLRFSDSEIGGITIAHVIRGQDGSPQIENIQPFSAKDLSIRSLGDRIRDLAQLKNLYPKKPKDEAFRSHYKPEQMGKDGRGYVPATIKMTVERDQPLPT
Put plainly: STAT6 Fluorescence Polarization (FP) Assay. In kind it is binding. The settings on record: STAT6(W123-T658) 250 nM, probe 5-FAM-ApYKPFQDLI-NH2 2 nM, 45-minute incubation. How it is done: STAT6 Fluorescence Polarization (FP) Assay
An FP assay was developed to determine IC50 values for test substances. Recombinant STAT6 protein (STAT6(W123-T658)) at 250 nM was combined with a fluorescently labeled, phosphotyrosine peptide probe (5-FAM-ApYKPFQDLI-NH2) at 2 nM in FP buffer (10 mM HEPES pH 7.4, 50 mM NaCl, 1 mM EDTA, 0.05% Tween 20.2 mM DTT). 50 μL of STAT6-probe mixture was added to serial diluted compounds in black, 96-well plates (Greiner BioOne 655076) to a final concentration of 1% DMSO. Reaction components were mixed, and FP was measured after 45-minute incubation at room temperature using a Tecan Spark multimode plate reader. FP signal (mP) was plotted against the log concentration of the test substances and IC50 values were calculated by nonlinear regression analysis using GraphPad Prism software. For STAT6 FP assay, A=≤300 nM; B=>300-3000 nM; C=>3-30 μM; and D=>30 μM.
A general note: In fluorescence polarisation assays a small probe gives low polarisation when free and higher when bound to something large.

Assay [2] has as its target T2, Recombinant STAT3 protein (STAT3(G127-I722)) (Homo sapiens, UniProt P40763).
T2 construct: Recombinant STAT3 protein (STAT3(G127-I722))
The assay is described as follows: STAT3 Fluorescence Polarization (FP) Assay. It counts as binding. The note with it: STAT3(G127-I722) 25 nM, probe 5-FAM-GpYLPQTV-NH2 2 nM, 45-minute incubation. The protocol: STAT3 Fluorescence Polarization (FP) Assay
An FP assay was developed to determine IC50 values for test substances. Recombinant STAT3 protein (STAT3(G127-I722)) at 25 nM was combined with a fluorescently labeled, phosphotyrosine peptide probe (5-FAM-GpYLPQTV-NH2) at 2 nM in FP buffer (10 mM HEPES pH 7.4, 50 mM NaCl, 1 mM EDTA, 0.05% Tween 20.2 mM DTT). 50 μL of STAT3-probe mixture was added to serial diluted compounds in black, 96-well plates (Greiner BioOne 655076) to a final concentration of 1% DMSO. Reaction components were mixed, and FP was measured after 45-minute incubation at room temperature using a Tecan Spark multimode plate reader. FP signal (mP) was plotted against the log concentration of the test substances and IC50 values were calculated by nonlinear regression analysis using GraphPad Prism software. For STAT3 FP assay, A=≤100 nM; B=>100-1000 nM; C=>1-10 μM; and D=>10 μM.

pIC50: −log10 of the molar value. Where only a bound is given, the exact number is not on record here.

T2 sequence (P40763 127-722): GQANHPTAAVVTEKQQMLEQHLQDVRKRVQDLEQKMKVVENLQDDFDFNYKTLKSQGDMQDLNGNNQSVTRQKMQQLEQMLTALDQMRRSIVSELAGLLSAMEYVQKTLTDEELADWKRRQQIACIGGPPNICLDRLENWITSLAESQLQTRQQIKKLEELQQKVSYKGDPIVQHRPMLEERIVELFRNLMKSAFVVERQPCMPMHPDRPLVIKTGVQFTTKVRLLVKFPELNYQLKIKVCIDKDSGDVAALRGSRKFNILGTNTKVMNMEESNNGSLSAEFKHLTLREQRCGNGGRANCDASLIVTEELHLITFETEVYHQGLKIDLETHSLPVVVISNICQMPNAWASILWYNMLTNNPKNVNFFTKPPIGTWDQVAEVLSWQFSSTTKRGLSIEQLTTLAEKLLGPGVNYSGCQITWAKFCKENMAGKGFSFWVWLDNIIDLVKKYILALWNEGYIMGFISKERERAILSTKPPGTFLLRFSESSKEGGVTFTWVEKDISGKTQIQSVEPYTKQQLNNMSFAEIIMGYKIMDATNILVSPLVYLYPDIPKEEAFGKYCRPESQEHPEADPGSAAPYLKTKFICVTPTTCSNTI

A word on the pIC50: it is −log10 of the IC50, conventionally taken in molar units. For `CC(=O)N1CC[C@H]2CC[C@@H](C(=O)N3CC(c4ccccc4)[C@@H](c4ccccc4)C3)N2C(=O)[C@@H](NC(=O)c2cc3cc(C(F)(F)P(=O)(O)O)ccc3s2)C1` (relative stereo) [Compound 143, ((2-(((5S,8S,10aR)-3-acetyl-8-((rel-trans)-3,4-diphenylpyrrolidine-1-carbonyl)-6-oxodecahydropyrrolo[1,2-a][1,5]diazocin-5-yl)carbamoyl)benzo[b]thiophen-5-yl)difluoromethyl)phosphonic acid], the pIC50 in assay [1] is at least 6.52; in assay [2], 5.00 to 6.00.
On the same counts, the results for `CC(=O)N1CC[C@H]2CC[C@@H](C(=O)Nc3ccc(-c4ccccc4)cc3)N2C(=O)[C@@H](NC(=O)c2cc3cc(C(F)(F)P(=O)(O)O)ccc3[nH]2)C1` [Compound 58, ((2-(((5S,8S,10aR)-8-([1,1′-biphenyl]-4-ylcarbamoyl)-3-acetyl-6-oxodecahydropyrrolo[1,2-a][1,5]diazocin-5-yl)carbamoyl)-1H-indol-5-yl)difluoromethyl)phosphonic acid] are 5.52 to 6.52 and 6.00 to 7.00.
In the same order, the values of `CC(=O)N1CC[C@H]2CC[C@@H](C(=O)N3Cc4cnn(-c5ccccc5)c4C3)N2C(=O)[C@@H](NC(=O)c2cc3cc(C(F)(F)P(=O)(O)O)ccc3s2)C1` [Compound 86, ((2-(((5S,8S,10aR)-3-acetyl-6-oxo-8-(1-phenyl-1,4,5,6-tetrahydropyrrolo[3,4-c]pyrazole-5-carbonyl)decahydropyrrolo[1,2-a][1,5]diazocin-5-yl)carbamoyl)benzo[b]thiophen-5-yl)difluoromethyl)phosphonic acid] are 5.52 to 6.52 and at least 7.00.
As for `CC(=O)N1CC[C@H]2CC[C@@H](C(=O)N(c3ccccc3)c3ccccc3)N2C(=O)[C@@H](NC(=O)c2cc3cc(C(F)(F)P(=O)(O)O)ccc3[nH]2)C1` [Compound 55, ((2-(((5S,8S,10aR)-3-acetyl-8-(diphenylcarbamoyl)-6-oxodecahydropyrrolo[1,2-a][1,5]diazocin-5-yl)carbamoyl)-1H-indol-5-yl)difluoromethyl)phosphonic acid], the pIC50 is 5.52 to 6.52 in assay [1] and 5.00 to 6.00 in assay [2].
In the same order, the values of `CCC(=O)NCCCN(C)C(=O)[C@@H]1CC[C@@H]2CCN(C(C)=O)C[C@H](NC(=O)c3cc4cc(C(=O)P(=O)(O)O)ccc4[nH]3)C(=O)N21` [Compound 27, (2-(((5S,8S,10aR)-3-acetyl-8-(methyl(3-propionamidopropyl)carbamoyl)-6-oxodecahydropyrrolo[1,2-a][1,5]diazocin-5-yl)carbamoyl)-1H-indole-5-carbonyl)phosphonic acid] are 4.52 to 5.52 and 5.00 to 6.00.
In the same order, the values of `CC(=O)N1CC[C@H]2CC[C@@H](C(=O)N3CCC(C(=O)N4CCCCC4)CC3)N2C(=O)[C@@H](NC(=O)c2cc3cc(C(F)(F)P(=O)(O)O)ccc3s2)C1` [Compound 192, ((2-(((5S,8S,10aR)-3-acetyl-6-oxo-8-(4-(piperidine-1-carbonyl)piperidine-1-carbonyl)decahydropyrrolo[1,2-a][1,5]diazocin-5-yl)carbamoyl)benzo[b]thiophen-5-yl)difluoromethyl)phosphonic acid] are 4.52 to 5.52 and 5.00 to 6.00.
In the same order, the values of `CC(=O)N1CC[C@H]2CC[C@@H](C(=O)N3CC(c4cc(F)cc(F)c4)[C@@H](C#N)C3)N2C(=O)[C@@H](NC(=O)c2cc3cc(C(F)(F)P(=O)(O)O)ccc3s2)C1` (relative stereo) [Compound 142, ((2-(((5S,8S,10aR)-3-acetyl-8-((rel-trans)-3-cyano-4-(3,5-difluorophenyl)pyrrolidine-1-carbonyl)-6-oxodecahydropyrrolo[1,2-a][1,5]diazocin-5-yl)carbamoyl)benzo[b]thiophen-5-yl)difluoromethyl)phosphonic acid] are at least 6.52 and 5.00 to 6.00.
For the compound `CN(C(=O)[C@@H]1CC[C@@H]2CCN(C(=O)CCc3ccccc3)C[C@H](NC(=O)c3cc4cc(C(F)(F)P(=O)(O)O)ccc4[nH]3)C(=O)N21)c1ccccc1` [Compound 253, (difluoro(2-(((5S,8S,10aR)-8-(methyl(phenyl)carbamoyl)-6-oxo-3-(3-phenylpropanoyl)decahydropyrrolo[1,2-a][1,5]diazocin-5-yl)carbamoyl)-1H-indol-5-yl)methyl)phosphonic acid], the negative logarithm of the IC50 (pIC50) was at least 6.52 in assay [1] and 5.00 to 6.00 in assay [2].
On the same counts, the results for `Cc1ccc2onc(C(=O)N3CC[C@H]4CC[C@@H](C(=O)N5CC6CCC(C5)O6)N4C(=O)[C@@H](NC(=O)c4ccc5ccc([C@H](F)P(=O)(O)O)cc5c4)C3)c2c1` [Compound 377, ((1R)-(7-(((5S,8S,10aR)-8-(8-oxa-3-azabicyclo[3.2.1]octane-3-carbonyl)-3-(5-methylbenzo[d]isoxazole-3-carbonyl)-6-oxodecahydropyrrolo [1,2-a][1,5]diazocin-5-yl)carbamoyl)naphthalen-2-yl)fluoromethyl)phosphonic acid] are at least 6.52 and under 5.00.
In the same order, the values of `CC(=O)N1CC[C@H]2CC[C@@H](C(=O)Nc3ccc(=O)n(C)c3)N2C(=O)[C@@H](NC(=O)c2cc3cc(C(F)(F)P(=O)(O)O)ccc3s2)C1` [Compound 71, ((2-(((5S,8S,10aR)-3-acetyl-8-((1-methyl-6-oxo-1,6-dihydropyridin-3-yl)carbamoyl)-6-oxodecahydropyrrolo[1,2-a][1,5]diazocin-5-yl)carbamoyl)benzo[b]thiophen-5-yl)difluoromethyl)phosphonic acid] are 5.52 to 6.52 and 5.00 to 6.00.
Take `CC(=O)N1CC[C@H]2CC[C@@H](C(=O)N(C)c3ccccc3)N2C(=O)[C@@H](NC(=O)c2cc3cc(C(C)P(=O)(O)O)ccc3s2)C1` (stereo partly drawn) [Compound 20, (1-(2-(((5S,8S,10aR)-3-acetyl-8-(methyl(phenyl)carbamoyl)-6-oxodecahydropyrrolo[1,2-a][1,5]diazocin-5-yl)carbamoyl)benzo[b]thiophen-5-yl)ethyl)phosphonic acid]: the pIC50 in assay [1] is under 4.52; in assay [2], under 5.00.
In the same order, the values of `Cc1ccc2[nH]nc(C(=O)N3CC[C@H]4CC[C@@H](C(=O)N(C)C)N4C(=O)[C@@H](NC(=O)c4cc5cc(C(F)(F)P(=O)(O)O)ccc5s4)C3)c2c1` [Compound 231, ((2-(((5S,8S,10aR)-8-(dimethylcarbamoyl)-3-(5-methyl-1H-indazole-3-carbonyl)-6-oxodecahydropyrrolo[1,2-a][1,5]diazocin-5-yl)carbamoyl)benzo[b]thiophen-5-yl)difluoromethyl)phosphonic acid] are at least 6.52 and 5.00 to 6.00.
For `CC(=O)N1CC[C@H]2CC[C@@H](C(=O)N3C[C@@H](C#N)[C@H](C4CCCCC4)C3)N2C(=O)[C@@H](NC(=O)c2cc3cc(C(F)(F)P(=O)(O)O)ccc3s2)C1` (relative stereo) [Compound 151, ((2-(((5S,8S,10aR)-3-acetyl-8-((rel-trans)-3-cyano-4-cyclohexylpyrrolidine-1-carbonyl)-6-oxodecahydropyrrolo[1,2-a][1,5]diazocin-5-yl)carbamoyl)benzo[b]thiophen-5-yl)difluoromethyl)phosphonic acid], the results for the pIC50 in assay [1] and in assay [2] were 5.52 to 6.52 and 5.00 to 6.00, respectively.
In the same order, the values of `O=C(N[C@H]1CN(Cc2ccn3ccnc3c2)CC[C@H]2CC[C@@H](C(=O)N3CC(c4cccnc4)C3)N2C1=O)c1cc2cc(CP(=O)(O)O)ccc2s1` [Compound 235, ((2-(((5S,8S,10aR)-3-(imidazo[1,2-a]pyridin-7-ylmethyl)-6-oxo-8-(3-(pyridin-3-yl)azetidine-1-carbonyl)decahydropyrrolo[1,2-a][1,5]diazocin-5-yl)carbamoyl)benzo[b]thiophen-5-yl)methyl)phosphonic acid] are under 4.52 and at least 7.00.
